Experimental data: patent US12545640B2, “Substituted 6,7-dihydro-5H-benzo[7]annulene compounds, processes for their preparation and therapeutic uses thereof” (SANOFI, priority 2019, dated 2026)
Structures can show the parent of a compound that is named as a salt.

Target: T1, ERα (Homo sapiens, UniProt P03372)
T1 construct: host or cells: MCF7 cells
T1 sequence (P03372 1-595): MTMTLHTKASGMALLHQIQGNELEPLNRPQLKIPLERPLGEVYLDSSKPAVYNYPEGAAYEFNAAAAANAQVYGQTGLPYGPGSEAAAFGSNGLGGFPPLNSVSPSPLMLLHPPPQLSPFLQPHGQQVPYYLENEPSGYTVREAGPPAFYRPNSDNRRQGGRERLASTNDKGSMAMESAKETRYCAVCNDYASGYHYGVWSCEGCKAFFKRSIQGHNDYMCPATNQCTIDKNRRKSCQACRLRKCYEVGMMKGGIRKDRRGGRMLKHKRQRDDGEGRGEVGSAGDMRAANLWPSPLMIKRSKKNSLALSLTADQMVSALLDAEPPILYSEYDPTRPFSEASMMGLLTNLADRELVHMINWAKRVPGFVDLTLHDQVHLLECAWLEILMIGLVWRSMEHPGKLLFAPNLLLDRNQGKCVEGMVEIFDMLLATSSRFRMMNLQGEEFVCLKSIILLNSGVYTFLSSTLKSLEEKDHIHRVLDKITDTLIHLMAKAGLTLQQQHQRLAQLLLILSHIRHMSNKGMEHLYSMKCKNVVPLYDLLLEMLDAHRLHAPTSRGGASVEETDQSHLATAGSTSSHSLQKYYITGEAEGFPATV
Experiment: Estrogen receptor degradation activity: breast cancer cell ERα in cell western assay (MCF7 cells)
Format: cell-based
Conditions: 4 hours, relative to fulvestrant 0.1 μM positive control; for % Degradation At 3 μM: final concentrations ranging from 3-0.000018 μM; for % Degradation At 0.3 μM: final concentrations ranging from 0.3-0.0000018 μM
Procedure: Test: Estrogen Receptor Degradation Activity
Said test involves measuring the in vitro degradation activity of the compounds of the invention.
The measurements of the degradation activities were made using a breast cancer cell ERα in cell western assay as described hereunder.
MCF7 cells (ATCC) were seeded in 384 wells microplate (collagen coated) at a concentration of 10000 cells/30 μL, per well in red phenol free MEM alpha medium (invitrogen) containing 5% charcoal dextran striped FBS. The following day, 9 points serial 1:5 dilution of each compound was added to the cells in 2.5 μL at final concentrations ranging either from 3-0.000018 μM (column «% Degradation at 3 μM in table 2) or from 0.3-0.0000018 μM (column «% Degradation at 0.3 μM in table 2), or 0.1 μM for fulvestrant (using as positive control). At 4 hours post compound addition the cells were fixed by adding 25 μL of formalin (final concentration 5% formalin containing 0.1% triton) for 10 minutes at room temperature and then washed twice with PBS. Then, 50 μL of LI-COR blocking buffer containing 0.1% Triton was added to plate for 30 minutes at room temperature. LI-COR blocking buffer was removed and cells were incubated overnight at cold room with 50 μL anti-ER rabbit monoclonal antibody (Thermo scientific MA1-39540) diluted at 1:1000 in LI-COR blocking buffer containing 0.1% tween-20. Wells which were treated with blocking buffer but no antibody were used as background control. Wells were washed twice with PBS (0.1% tween-20) and incubated at 37° C. for 60 minutes in LI-COR (0.1% tween-20) containing goat anti-rabbit antibody Alexa 488 (1:1000) and Syto-64 a DNA dye ([…]). Cells were then washed 3 times in PBS and scanned in ACUMEN explorer (TTP-Labtech). Integrated intensities in the green fluorescence and red fluorescence were measured to determine the levels of ERα and DNA respectively.

Structure (SMILES) | % Degradation At 3 μM [%] | % Degradation At 0.3 μM [%]
O=C(O)c1cccc(-c2ccc3c(c2)CCCC(c2ccc(Cl)cc2Cl)=C3c2ccc(O[C@H]3CCN(CCCF)C3)cc2)c1 [Example 55, (S)-3-(8-(2,4-dichlorophenyl)-9-(4-((1-(3-fluoropropyl)pyrrolidin-3-yl)oxy)phenyl)-6,7-dihydro-5H-benzo[7]annulen-3-yl)benzoic acid] | 84 | 
COC(=O)c1ccc(-c2ccc3c(c2)CCCC(c2ccc(Cl)cc2Cl)=C3c2ccc(O[C@H]3CCN(CCCF)C3)cc2)cc1 [Example 56, Methyl (S)-4-(8-(2,4-dichlorophenyl)-9-(4-((1-(3-fluoropropyl)pyrrolidin-3-yl)oxy)phenyl)-6,7-dihydro-5H-benzo[7]annulen-3-yl)benzoate] | 89 | 
COC(=O)c1cccc(-c2ccc3c(c2)CCCC(c2ccc(Cl)cc2Cl)=C3c2ccc(O[C@H]3CCN(CCCF)C3)cc2)c1 [Example 57, Methyl (S)-3-(8-(2,4-dichlorophenyl)-9-(4-((1-(3-fluoropropyl)pyrrolidin-3-yl)oxy)phenyl)-6,7-dihydro-5H-benzo[7]annulen-3-yl)benzoate] | 87 | 
Nc1nc(-c2ccc3c(c2)CCCC(c2ccc(Cl)cc2Cl)=C3c2ccc(O[C@H]3CCN(CCCF)C3)cc2)cs1 [Example 61, (S)-4-(8-(2,4-dichlorophenyl)-9-(4-((1-(3-fluoropropyl)pyrrolidin-3-yl)oxy)phenyl)-6,7-dihydro-5H-benzo[7]annulen-3-yl)thiazol-2-amine] | 76 | 
OC(c1ccc2c(c1)CCCC(c1cccc(F)c1Cl)=C2c1ccc(O[C@H]2CCN(CCCF)C2)cc1)C(F)(F)F (stereo partly drawn) [Example 65, 1-(8-(2-chloro-3-fluorophenyl)-9-(4-(((S)-1-(3-fluoropropyl)pyrrolidin-3-yl)oxy)phenyl)-6,7-dihydro-5H-benzo[7]annulen-3-yl)-2,2,2-trifluoroethan-1-ol] |  | 90
C/N=c1\scc(-c2ccc3c(c2)CCCC(c2ccc(Cl)cc2Cl)=C3c2ccc(O[C@H]3CCN(CCCF)C3)cc2)n1C [Example 69, (S,Z)-4-(8-(2,4-dichlorophenyl)-9-(4-((1-(3-fluoropropyl)pyrrolidin-3-yl)oxy)phenyl)-6,7-dihydro-5H-benzo[7]annulen-3-yl)-N,3-dimethylthiazol-2(3H)-imine hydrochloride] |  | 69
CC(C)(C)OC(=O)Nc1ccc2c(c1)CCCC(c1ccccc1)=C2c1ccc(O[C@H]2CCN(CCCF)C2)cc1 [Example 71, tert-butyl (S)-(9-(4-((1-(3-fluoropropyl)pyrrolidin-3-yl)oxy)phenyl)-8-phenyl-6,7-dihydro-5H-benzo[7]annulen-3-yl)carbamate] |  | 91
Nc1cc(-c2ccc3c(c2)CCCC(c2ccc(Cl)cc2Cl)=C3c2ccc(O[C@H]3CCN(CCCF)C3)cc2)n[nH]1 [Example 73, (S)-3-(8-(2,4-dichlorophenyl)-9-(4-((1-(3-fluoropropyl)pyrrolidin-3-yl)oxy)phenyl)-6,7-dihydro-5H-benzo[7]annulen-3-yl)-1H-pyrazol-5-amine] |  | 89
CCOc1ccc(C2=C(c3ccc(O[C@H]4CCN(CCCF)C4)cc3)c3ccc(C(N)=O)cc3CCC2)c(F)n1 [Example 79, (S)-8-(6-ethoxy-2-fluoropyridin-3-yl)-9-(4-((1-(3-fluoropropyl)pyrrolidin-3-yl)oxy)phenyl)-6,7-dihydro-5H-benzo[7]annulene-3-carboxamide] |  | 91

Further lines, results first:

% Degradation At 3 μM [%] | % Degradation At 0.3 μM [%] | Structure (SMILES)
77 |  | O=C1CCCN1c1ccc2c(c1)CCCC(c1ccc(Cl)cc1Cl)=C2c1ccc(O[C@H]2CCN(CCCF)C2)cc1 [Example 58, (S)-1-(8-(2,4-dichlorophenyl)-9-(4-((1-(3-fluoropropyl)pyrrolidin-3-yl)oxy)phenyl)-6,7-dihydro-5H-benzo[7]annulen-3-yl)pyrrolidin-2-one]
91 |  | O=C(NNC(=S)n1ccnc1)c1ccc2c(c1)CCCC(c1ccc(Cl)cc1Cl)=C2c1ccc(O[C@H]2CCN(CCCF)C2)cc1 [Example 59, (S)-8-(2,4-dichlorophenyl)-9-(4-((1-(3-fluoropropyl)pyrrolidin-3-yl)oxy)phenyl)-N′-(1H-imidazole-1-carbonothioyl)-6,7-dihydro-5H-benzo[7]annulene-3-carbohydrazide]
74 |  | O=C(Nc1ccc2c(c1)CCCC(c1ccc(Cl)cc1Cl)=C2c1ccc(O[C@H]2CCN(CCCF)C2)cc1)C1CC1 [Example 60, (S)—N-(8-(2,4-dichlorophenyl)-9-(4-((1-(3-fluoropropyl)pyrrolidin-3-yl)oxy)phenyl)-6,7-dihydro-5H-benzo[7]annulen-3-yl)cyclopropanecarboxamide]
 | 68 | CC(C)(C)C(=O)Nc1ccc2c(c1)CCCC(c1ccc(Cl)cc1Cl)=C2c1ccc(O[C@H]2CCN(CCCF)C2)cc1 [Example 62, (S)—N-(8-(2,4-dichlorophenyl)-9-(4-((1-(3-fluoropropyl)pyrrolidin-3-yl)oxy)phenyl)-6,7-dihydro-5H-benzo[7]annulen-3-yl)pivalamide]
 | 74 | O=C(Nc1ccc2c(c1)CCCC(c1ccc(Cl)cc1Cl)=C2c1ccc(O[C@H]2CCN(CCCF)C2)cc1)C1(F)CC1 [Example 66, (S)—N-(8-(2,4-dichlorophenyl)-9-(4-((1-(3-fluoropropyl)pyrrolidin-3-yl)oxy)phenyl)-6,7-dihydro-5H-benzo[7]annulen-3-yl)-1-fluorocyclopropane-1-carboxamide]
 | 79 | CC1(C(=O)Nc2ccc3c(c2)CCCC(c2ccc(Cl)cc2Cl)=C3c2ccc(O[C@H]3CCN(CCCF)C3)cc2)CC1 [Example 67, (S)—N-(8-(2,4-dichlorophenyl)-9-(4-((1-(3-fluoropropyl)pyrrolidin-3-yl)oxy)phenyl)-6,7-dihydro-5H-benzo[7]annulen-3-yl)-1-methylcyclopropane-1-carboxamide]
 | 74 | O=C(O)c1ccc(-c2ccc3c(c2)CCCC(c2ccc(Cl)cc2Cl)=C3c2ccc(O[C@H]3CCN(CCCF)C3)cc2)cc1 [Example 72, (S)-4-(8-(2,4-dichlorophenyl)-9-(4-((1-(3-fluoropropyl)pyrrolidin-3-yl)oxy)phenyl)-6,7-dihydro-5H-benzo[7]annulen-3-yl)benzoic acid]
 | 59 | O=C(c1ccc2c(c1)CCCC(c1ccc(Cl)cc1Cl)=C2c1ccc(O[C@H]2CCN(CCCF)C2)cc1)N1CC(O)C1 [Example 74, (S)-(8-(2,4-dichlorophenyl)-9-(4-((1-(3-fluoropropyl)pyrrolidin-3-yl)oxy)phenyl)-6,7-dihydro-5H-benzo[7]annulen-3-yl)(3-hydroxyazetidin-1-yl)methanone]
 | 71 | O=C(NC1COC1)c1ccc2c(c1)CCCC(c1ccc(Cl)cc1Cl)=C2c1ccc(O[C@H]2CCN(CCCF)C2)cc1 [Example 75, (S)-8-(2,4-dichlorophenyl)-9-(4-((1-(3-fluoropropyl)pyrrolidin-3-yl)oxy)phenyl)-N-(oxetan-3-yl)-6,7-dihydro-5H-benzo[7]annulene-3-carboxamide]
 | 75 | CCOC(=O)C(=O)Nc1ccc2c(c1)CCCC(c1ccc(Cl)cc1Cl)=C2c1ccc(O[C@H]2CCN(CCCF)C2)cc1 [Example 76, ethyl (S)-2-((8-(2,4-dichlorophenyl)-9-(4-((1-(3-fluoropropyl)pyrrolidin-3-yl)oxy)phenyl)-6,7-dihydro-5H-benzo[7]annulen-3-yl)amino)-2-oxoacetate]
 | 55 | NC(=O)C(=O)Nc1ccc2c(c1)CCCC(c1ccc(Cl)cc1Cl)=C2c1ccc(O[C@H]2CCN(CCCF)C2)cc1 [Example 77, (S)—N1-(8-(2,4-dichlorophenyl)-9-(4-((1-(3-fluoropropyl)pyrrolidin-3-yl)oxy)phenyl)-6,7-dihydro-5H-benzo[7]annulen-3-yl)oxalamide]
